# Laboratory results reported in PubChem BioAssay AID1963862 (Molecular Pharmacology Branch, DTP, NCI, 2024).
# System: KRAS patient-derived spheroids with HUVEC/MSC, viability
# Experiment: Anticancer human tumor 941728-121-R-J1-PDC patient-derived lung adenocarcinoma cell line growth inhibition [KRAS2]
# Conditions: for IC50: curve of first compound; for viability, T/C: stronger effect = lower value
# Outline: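 Combination screen of spheroid viability in tumor-cell co-cultures with endothelial (HUVEC) and mesenchymal stem cell stroma. Each agent was tested in half-log dilutions, topping at clinical Cmax or at 10 microM without a known Cmax.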
# [1] = second compound 0.1 µM, first compound 0.0316 µM
# [2] = second compound 0.1 µM, first compound 0.1 µM
# [3] = second compound 0.316 µM, first compound 0.0316 µM
# [4] = second compound 0.316 µM, first compound 0.1 µM
# [5] = second compound 1 µM, first compound 0.0316 µM
# [6] = second compound 1 µM, first compound 0.1 µM
# [7] = second compound 3.16 µM, first compound 0.0316 µM
# [8] = second compound 3.16 µM, first compound 0.1 µM
# [9] = second compound 10 µM, first compound 0.0316 µM
# [10] = second compound 10 µM, first compound 0.1 µM
# 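Note: spheroids exposed to agents for seven days before readout.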
structure (smiles),measurement,setting,value
Cn1nccc1Nc1nccc(-c2cc3c(s2)C(C)(C)N(CCN2CCOCC2)C3=O)n1 + CNCc1ccccc1-c1csc(C(C)Nc2nc(C)nc3cc(OC)c(OC)cc23)c1,IC50,second compound 0.1 µM,81.2 nM
same,IC50,second compound 0.316 µM,< 31.6 nM
same,IC50,second compound 1 µM,< 31.6 nM
same,IC50,second compound 3.16 µM,< 31.6 nM
same,IC50,second compound 10 µM,< 31.6 nM
same,"viability, T/C",[1],70.3%
same,"viability, T/C",[2],46.4%
same,"viability, T/C","second compound 0.1 µM, first compound 0.316 µM",37.4%
same,"viability, T/C","second compound 0.1 µM, first compound 1 µM",37.9%
same,"viability, T/C","second compound 0.1 µM, first compound 3.16 µM",36.8%
same,"viability, T/C","second compound 0.1 µM, first compound 10 µM",40.7%
same,"viability, T/C",[3],40.3%
same,"viability, T/C",[4],37.9%
same,"viability, T/C","second compound 0.316 µM, first compound 0.316 µM",34.8%
same,"viability, T/C","second compound 0.316 µM, first compound 1 µM",32.3%
same,"viability, T/C","second compound 0.316 µM, first compound 3.16 µM",31%
same,"viability, T/C","second compound 0.316 µM, first compound 10 µM",29.6%
same,"viability, T/C",[5],35.6%
same,"viability, T/C",[6],30.3%
same,"viability, T/C","second compound 1 µM, first compound 0.316 µM",31.6%
same,"viability, T/C","second compound 1 µM, first compound 1 µM",21.3%
same,"viability, T/C","second compound 1 µM, first compound 3.16 µM",11.4%
same,"viability, T/C","second compound 1 µM, first compound 10 µM",13.1%
same,"viability, T/C",[7],1.11%
same,"viability, T/C",[8],2.35%
same,"viability, T/C","second compound 3.16 µM, first compound 0.316 µM",1.61%
same,"viability, T/C","second compound 3.16 µM, first compound 1 µM",0.99%
same,"viability, T/C","second compound 3.16 µM, first compound 3.16 µM",1.35%
same,"viability, T/C","second compound 3.16 µM, first compound 10 µM",0.25%
same,"viability, T/C",[9],0.56%
same,"viability, T/C",[10],0.88%
same,"viability, T/C","second compound 10 µM, first compound 0.316 µM",0.44%
same,"viability, T/C","second compound 10 µM, first compound 1 µM",0.77%
same,"viability, T/C","second compound 10 µM, first compound 3.16 µM",0.11%
same,"viability, T/C","second compound 10 µM, first compound 10 µM",0.35%
Cn1ncnc1[C@H]1c2n[nH]c(=O)c3cc(F)cc(c23)N[C@@H]1c1ccc(F)cc1 + CNCc1ccccc1-c1csc(C(C)Nc2nc(C)nc3cc(OC)c(OC)cc23)c1,IC50,second compound 0.1 µM,6.44 nM
same,IC50,second compound 0.316 µM,< 0.316 nM
same,IC50,second compound 1 µM,< 0.316 nM
same,IC50,second compound 3.16 µM,< 0.316 nM
same,IC50,second compound 10 µM,< 0.316 nM
same,"viability, T/C","second compound 0.1 µM, first compound 0.000316 µM",52.8%
same,"viability, T/C","second compound 0.1 µM, first compound 0.001 µM",70.3%
same,"viability, T/C","second compound 0.1 µM, first compound 0.00316 µM",47.4%
same,"viability, T/C","second compound 0.1 µM, first compound 0.01 µM",44.4%
same,"viability, T/C",[1],44.3%
same,"viability, T/C",[2],37.2%
same,"viability, T/C","second compound 0.316 µM, first compound 0.000316 µM",35.8%
same,"viability, T/C","second compound 0.316 µM, first compound 0.001 µM",30.6%
same,"viability, T/C","second compound 0.316 µM, first compound 0.00316 µM",27.9%
same,"viability, T/C","second compound 0.316 µM, first compound 0.01 µM",29.3%
same,"viability, T/C",[3],26.3%
same,"viability, T/C",[4],27.4%
same,"viability, T/C","second compound 1 µM, first compound 0.000316 µM",14.4%
same,"viability, T/C","second compound 1 µM, first compound 0.001 µM",15.7%
same,"viability, T/C","second compound 1 µM, first compound 0.00316 µM",15.4%
same,"viability, T/C","second compound 1 µM, first compound 0.01 µM",14.4%
same,"viability, T/C",[5],10.9%
same,"viability, T/C",[6],15.1%
same,"viability, T/C","second compound 3.16 µM, first compound 0.000316 µM",0.11%
same,"viability, T/C","second compound 3.16 µM, first compound 0.001 µM",0.05%
same,"viability, T/C","second compound 3.16 µM, first compound 0.00316 µM",0.16%
same,"viability, T/C","second compound 3.16 µM, first compound 0.01 µM",0.06%
same,"viability, T/C",[7],0.09%
same,"viability, T/C",[8],0.18%
same,"viability, T/C","second compound 10 µM, first compound 0.000316 µM",0.08%
same,"viability, T/C","second compound 10 µM, first compound 0.001 µM",0.09%
same,"viability, T/C","second compound 10 µM, first compound 0.00316 µM",0.08%
same,"viability, T/C","second compound 10 µM, first compound 0.01 µM",0.09%
same,"viability, T/C",[9],0.12%
same,"viability, T/C",[10],0.16%
